Test results published in patent publication US20030087316A1, “Diagnostic markers of liver dysfunction” (priority 2001, published 2003).
Entries after “also recorded” stand apart in the source; their conditions may differ. Non-standard residues stand in square brackets, D forms with d. No end group written: not given here. *: point of attachment. pNA = O=[N+]([O-])c1ccc(N*)cc1

What was measured:
thrombin = biological target: T1, thrombin (Homo sapiens, UniProt P00734); test: Peptidase (amidolytic) activity of purified thrombin, chromogenic substrate, OD 405 nm; format: biochemical; settings: for Cleavage of the substrate by thrombin, in words: enzyme 10 nM, 37° C., 15 min (FIG. 7)
T1 construct: purchased Calbiochem-Novabiochem Corp (La Jolla, Calif.)

plasma kallikrein = biological target: T2, plasma kallikrein (Homo sapiens, UniProt P03952); test: Peptidase (amidolytic) activity of purified plasma kallikrein, chromogenic substrate, OD 405 nm; format: biochemical; settings: for Cleavage of the substrate by plasma kallikrein, in words: enzyme 10 nM, 37° C., 15 min (FIG. 7)
T2 construct: The light chain of kallikrein contains the enzymatic domain; purchased Calbiochem-Novabiochem Corp (La Jolla, Calif.)
T2 sequence (P03952 391-638 limits assumed): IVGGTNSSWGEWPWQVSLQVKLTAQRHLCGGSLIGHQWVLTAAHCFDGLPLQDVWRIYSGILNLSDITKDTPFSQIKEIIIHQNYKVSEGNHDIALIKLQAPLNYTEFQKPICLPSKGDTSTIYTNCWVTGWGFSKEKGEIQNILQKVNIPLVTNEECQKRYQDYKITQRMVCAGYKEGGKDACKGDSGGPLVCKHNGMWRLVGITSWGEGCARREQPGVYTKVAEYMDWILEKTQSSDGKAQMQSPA
T2 sequence (P03952 20-390 partner limits assumed): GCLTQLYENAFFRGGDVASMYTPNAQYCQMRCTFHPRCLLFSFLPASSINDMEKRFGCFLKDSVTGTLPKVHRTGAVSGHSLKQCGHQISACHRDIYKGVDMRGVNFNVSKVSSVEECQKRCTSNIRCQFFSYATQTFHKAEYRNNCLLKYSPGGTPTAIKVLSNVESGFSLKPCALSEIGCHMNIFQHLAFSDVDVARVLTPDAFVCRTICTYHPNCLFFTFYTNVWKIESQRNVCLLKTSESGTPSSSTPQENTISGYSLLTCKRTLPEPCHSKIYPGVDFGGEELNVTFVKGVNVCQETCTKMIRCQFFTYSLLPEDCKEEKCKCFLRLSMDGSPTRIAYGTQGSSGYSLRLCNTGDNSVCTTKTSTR
Method: (§1) The peptidase activity in plasma samples or of the purified enzymes were routinely determined at 37° C. in a 96-well plate. Each well contained 0.5 mM substrate in 100 μl of Tris-buffered saline (TBS)-EDTA buffer (50 mM Tris/150 mM NaCl/10 mM EDTA, pH 7.8) and the reaction was monitored using a microplate reader (Titertek Multiscan, Labsystems, Needham Heights, Mass.).
(§2) […] EDTA plasma samples from LTR were diluted 10 or 20-fold with TBS-EDTA. The chromogenic substrate AGLTR-pNA was used for all enzymes and LTR samples except C1s where the substrate S2288 was used. Based on the initial rate of increase in OD at 405 nm, the residual free enzyme level was calculated and expressed as a percentage of total activity without inhibitor added.
(§3) Ten-fold diluted normal EDTA plasma was added to each enzyme. […] LTR samples were 10 or 20-fold diluted with TBS-EDTA. The chromogenic substrate AGLTR-pNA was used for all enzymes and LTP samples except C1s where the substrate S2288 was used. Based on the initial rate of increase in OD at 405 nm, the residual free enzyme was calculated and expressed as a percentage of total activity determined without inhibitor added.

β-Factor XIIa (β-FXIIa) = biological target: T3, β-Factor XIIa (β-FXIIa) (Homo sapiens, UniProt P00748); test: Peptidase (amidolytic) activity of purified β-FXIIa, chromogenic substrate, OD 405 nm; format: biochemical; settings: for Cleavage of the substrate by β-FXIIa, in words: enzyme 10 nM, 37° C., 15 min (FIG. 7)
T3 construct: β-Factor XIIa (β-FXIIa) was kindly provided by Dr. Mary J. Heeb; gift of Dr. Mary J. Heeb, The Scripps Research Institute
T3 sequence (P00748 373-615 limits assumed, other chains not shown): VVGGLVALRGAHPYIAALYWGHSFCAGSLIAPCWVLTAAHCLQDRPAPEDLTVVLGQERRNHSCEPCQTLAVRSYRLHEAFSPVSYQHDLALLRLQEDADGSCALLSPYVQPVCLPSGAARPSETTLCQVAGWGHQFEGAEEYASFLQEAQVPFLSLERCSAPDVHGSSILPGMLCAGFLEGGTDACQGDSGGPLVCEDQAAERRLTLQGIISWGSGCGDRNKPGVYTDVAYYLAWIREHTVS
Method: as §1, §2, §3

tissue kallikrein = test: Peptidase activity of purified tissue kallikrein on chromogenic substrates; format: biochemical; settings: enzyme 10 nM, 37° C., 15 min (FIG. 7)
Method: as §1

C1s [1] = biological target: T4, C1s (Homo sapiens, UniProt P09871); test: Peptidase (amidolytic) activity of purified C1s, chromogenic substrate, 96-well plate, OD 405 nm; format: biochemical; settings: enzyme 10 nM, 37° C., 15 min (FIG. 7)
T4 construct: purchased Advanced Research Technologies (San Diego, Calif.)
T4 sequence (P09871 438-688 limits assumed): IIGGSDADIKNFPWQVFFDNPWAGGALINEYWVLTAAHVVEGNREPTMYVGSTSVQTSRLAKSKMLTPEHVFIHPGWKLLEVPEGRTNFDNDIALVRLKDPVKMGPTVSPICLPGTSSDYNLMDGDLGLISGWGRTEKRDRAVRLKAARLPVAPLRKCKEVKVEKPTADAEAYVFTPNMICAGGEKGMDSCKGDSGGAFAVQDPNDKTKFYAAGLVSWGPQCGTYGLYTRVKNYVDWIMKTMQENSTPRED
T4 sequence (P09871 16-437 partner limits assumed): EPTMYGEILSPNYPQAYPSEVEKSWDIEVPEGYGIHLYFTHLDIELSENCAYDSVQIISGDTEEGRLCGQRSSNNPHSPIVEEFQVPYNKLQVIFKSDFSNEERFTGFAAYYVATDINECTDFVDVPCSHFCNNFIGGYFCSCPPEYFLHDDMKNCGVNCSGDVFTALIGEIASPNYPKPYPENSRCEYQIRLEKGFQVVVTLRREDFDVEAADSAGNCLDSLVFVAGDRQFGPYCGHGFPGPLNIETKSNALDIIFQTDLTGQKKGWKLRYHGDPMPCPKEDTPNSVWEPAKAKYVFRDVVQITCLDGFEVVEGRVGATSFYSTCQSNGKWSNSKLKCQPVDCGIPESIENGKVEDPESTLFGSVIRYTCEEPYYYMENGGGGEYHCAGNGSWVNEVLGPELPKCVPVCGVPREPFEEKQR

plasmin [2] = biological target: T5, plasmin (Homo sapiens, UniProt P00747); test: Peptidase (amidolytic) activity of purified plasmin, chromogenic substrate, OD 405 nm; format: biochemical; settings: enzyme 10 nM, 37° C., 15 min (FIG. 7)
T5 construct: purchased Calbiochem-Novabiochem Corp (La Jolla, Calif.)
T5 sequence (P00747 581-810 limits assumed, species assumed): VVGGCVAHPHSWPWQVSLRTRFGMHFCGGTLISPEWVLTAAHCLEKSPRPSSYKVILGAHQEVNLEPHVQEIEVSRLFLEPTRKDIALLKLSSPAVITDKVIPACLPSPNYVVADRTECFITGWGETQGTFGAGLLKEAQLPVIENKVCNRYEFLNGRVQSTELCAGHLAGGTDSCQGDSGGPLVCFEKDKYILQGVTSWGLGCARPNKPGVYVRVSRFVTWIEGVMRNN
T5 sequence (P00747 97-580 partner limits assumed, species assumed): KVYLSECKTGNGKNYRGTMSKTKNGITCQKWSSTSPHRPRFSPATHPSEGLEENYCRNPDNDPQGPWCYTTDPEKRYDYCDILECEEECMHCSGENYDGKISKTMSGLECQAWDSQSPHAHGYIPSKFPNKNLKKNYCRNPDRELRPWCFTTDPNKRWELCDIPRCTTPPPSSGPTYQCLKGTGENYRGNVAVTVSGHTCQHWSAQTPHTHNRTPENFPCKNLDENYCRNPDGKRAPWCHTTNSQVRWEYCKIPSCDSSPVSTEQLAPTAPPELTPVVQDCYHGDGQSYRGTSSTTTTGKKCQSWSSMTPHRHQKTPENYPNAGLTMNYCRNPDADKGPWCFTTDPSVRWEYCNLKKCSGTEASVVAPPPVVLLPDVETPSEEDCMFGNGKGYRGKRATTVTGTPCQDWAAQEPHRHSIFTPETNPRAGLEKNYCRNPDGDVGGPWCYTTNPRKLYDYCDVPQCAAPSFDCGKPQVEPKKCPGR

trypsin [3] = test: Peptidase (amidolytic) activity of purified trypsin, chromogenic substrate, OD 405 nm; format: biochemical; settings: enzyme 10 nM, 37° C., 15 min (FIG. 7)
[4] = tested on: proteinase(s) in EDTA plasma from LTR (kallikrein-like peptidase); test: Peptidase activity in EDTA plasma from liver transplant recipients (LTR), chromogenic substrate, OD 405 nm; format: biochemical, human; settings: Sephacryl S-300 fractions of LTR plasma, 37° C. (FIG. 4)
C1s [5] = biological target: T4, C1s; test: Peptidase (amidolytic) activity of purified C1s, chromogenic substrate, 96-well plate, OD 405 nm; format: biochemical; settings: Table 2; C1s 100 nM, substrate S2288; 60 min at 4° C. with LBTI 1 mg/ml, SBTI I mg/ml, aprotinin 0.075 mg/ml, benzamidine 50 mM or Futhan 0.1 mg/ml; % of total activity without inhibitor
Method: as §1
(§4) The enzymes C1s (100 nM), plasm in (100 nM), thrombin (100 nM), plasma kallikrein (20 nM), β-FXIIa (100 nM), trypsin (16 nM) or LTR EDTA plasma samples were incubated for 60 min at 4° C. with TBS-EDTA buffer containing either LBTI (1 mg/ml), SBTI (I mg/ml), aprotinin (0.075 mg/ml), benzamidine (50 mM), or Futhan (0.1 mg/ml), before mixing with the substrate. EDTA plasma samples from LTR were diluted 10 or 20-fold with TBS-EDTA. The chromogenic substrate AGLTR-pNA was used for all enzymes and LTR samples except C1s where the substrate S2288 was used. Based on the initial rate of increase in OD at 405 nm, the residual free enzyme level was calculated and expressed as a percentage of total activity without inhibitor added.
(§5) Ten-fold diluted normal EDTA plasma was added to each enzyme. The enzymes C1s (100 nM), plasmin (100 nM), thrombin (100 nM), plasma kallikrein (20 nM), β-FXIIa (100 nM), trypsin (16 nM) or LTR EDTA plasma samples were incubated for 60 min at 4° C. with TBS-EDTA buffer containing either C1INH (40 μg/ml), bdellin (50 μg/ml), hirudin (50 U/ml), PPACK 11(10 μM), or CTI (100 μg/ml), before adding the substrate. LTR samples were 10 or 20-fold diluted with TBS-EDTA. The chromogenic substrate AGLTR-pNA was used for all enzymes and LTP samples except C1s where the substrate S2288 was used. Based on the initial rate of increase in OD at 405 nm, the residual free enzyme was calculated and expressed as a percentage of total activity determined without inhibitor added.

plasmin [6] = biological target: T5, plasmin; test: Peptidase (amidolytic) activity of purified plasmin, chromogenic substrate, OD 405 nm; format: biochemical; settings: Table 2; plasmin 100 nM, substrate AGLTR-pNA; 60 min at 4° C. with LBTI 1 mg/ml, SBTI I mg/ml, aprotinin 0.075 mg/ml, benzamidine 50 mM or Futhan 0.1 mg/ml
Method: as §1, §4, §5

trypsin [7] = test: Peptidase (amidolytic) activity of purified trypsin, chromogenic substrate, OD 405 nm; format: biochemical; settings: Table 2; trypsin 16 nM, substrate AGLTR-pNA; 60 min at 4° C. with LBTI 1 mg/ml, SBTI I mg/ml, aprotinin 0.075 mg/ml, benzamidine 50 mM or Futhan 0.1 mg/ml
Method: as §1, §4

[8] = tested on: proteinase(s) in EDTA plasma from LTR (kallikrein-like peptidase); test: Peptidase activity in EDTA plasma from liver transplant recipients (LTR), chromogenic substrate, OD 405 nm; format: biochemical, human; settings: Table 2, substrate AGLTR-pNA, 60 min at 4° C. with LBTI 1 mg/ml, SBTI I mg/ml, aprotinin 0.075 mg/ml, benzamidine 50 mM or Futhan 0.1 mg/ml
Method: Blood samples were drawn into 5 ml EDTA tubes (Venoject; Terumo Corp., Elkton, Md.). The plasma was collected immediately by centrifugation at 2,000×g for 15 min at 4° C. The plasma samples were either processed immediately for analysis or stored at −70° C. Frozen samples were thawed at 4° C. prior to analysis.
as §1, §4, §5

[9] = tested on: all of the enzymes examined; test: General serine proteinase inhibitors on selected proteinases (summary over the enzymes); format: biochemical; settings: Table 2; benzamidine 50 mM, Futhan 0.1 mg/ml
Method: as §1, §4

Molecule | Cleavage of the substrate by thrombin, in words (thrombin) | Cleavage of the substrate by plasma kallikrein, in words (plasma kallikrein) | Cleavage of the substrate by β-FXIIa, in words (β-Factor XIIa (β-FXIIa)) | Cleavage of the substrate by tissue kallikrein, in words (tissue kallikrein) | Cleavage of the substrate by C1s, in words (C1s [1]) | Cleavage of the substrate by plasmin, in words (plasmin [2]) | Cleavage of the substrate by trypsin, in words (trypsin [3]) | Rate of conversion of the substrate by gel filtered LTR plasma, relative to AGLTR-pNA, in words [4] | % Residual activity, C1s (C1s [5]) | % Residual activity, Plasmin (plasmin [6]) | % Residual activity, Thrombin (thrombin; Table 2, thrombin 100 nM, substrate AGLTR-pNA, 60 min at 4° C. with LBTI 1 mg/ml, SBTI I mg/ml, aprotinin 0.075 mg/ml, benzamidine 50 mM or Futhan 0.1 mg/ml) | % Residual activity, Plasma Kallikrein (plasma kallikrein; Table 2, plasma kallikrein 20 nM, substrate AGLTR-pNA, 60 min at 4° C. with LBTI 1 mg/ml, SBTI I mg/ml, aprotinin 0.075 mg/ml, benzamidine 50 mM or Futhan 0.1 mg/ml) | % Residual activity, β-FXIIa (β-Factor XIIa (β-FXIIa); Table 2, β-FXIIa 100 nM, substrate AGLTR-pNA, 60 min at 4° C. with LBTI 1 mg/ml, SBTI I mg/ml, aprotinin 0.075 mg/ml, benzamidine 50 mM or Futhan 0.1 mg/ml) | % Residual activity, Trypsin (trypsin [7]) | % Residual activity, LTR 1 ([8]; LTR 1 EDTA plasma diluted 10 or 20-fold) | % Residual activity, LTR 2 ([8]; LTR 2 EDTA plasma diluted 10 or 20-fold) | % Residual activity, LTR 3 ([8]; LTR 3 EDTA plasma diluted 10 or 20-fold) | Inhibition of all of the enzymes examined, in words [9]
[dI]-Pro-Arg-pNA [S2288] | cleaved substrate S2288 more efficiently than S2302; also recorded: preferred S2288 over either AGLTR-pNA or S2302 | cleaved S2302 more rapidly than S2288 | least active on these substrates | least active on these substrates | least active on these substrates | least active on these substrates | cleaved substrate S2288 more efficiently than S2302 | somewhat greater than that using AGLTR-pNA | – | – | – | – | – | – | – | – | – | –
N=C(N)c1ccccc1 [Benzamidine, benzamidine] | – | – | – | – | – | – | – | – | 6.6% | 3.9% | 1.6% | 2.0% | 10.9% | 5.8% | 0.5% | −0.3% | 1.5% | very efficient inhibitors for all of the enzymes examined
[dP]-Phe-Arg-pNA [S2302] | cleaved substrate S2288 more efficiently than S2302 | cleaved S2302 more rapidly than S2288 | least active on these substrates | least active on these substrates | least active on these substrates | least active on these substrates | cleaved substrate S2288 more efficiently than S2302 | somewhat greater than that using AGLTR-pNA | – | – | – | – | – | – | – | – | – | –
Ac-Ala-Gly-Leu-Thr-Arg-p-nitroanilide (Ac-AGLTR-pNA; SMILES CC(=O)N[C@@H](C)C(=O)NCC(=O)N[C@@H](CC(C)C)C(=O)N[C@H](C(=O)N[C@@H](CCCNC(=N)N)C(=O)Nc1ccc([N+](=O)[O-])cc1)[C@@H](C)O) | poorly cleaved | cleaved AGLTR-pNA relatively efficiently | almost no ability to cleave this substrate | almost no ability to cleave this substrate | almost no ability to cleave this substrate; also recorded: neither C1s nor any of the other proteinases efficiently cleaved this substrate | poorly cleaved | cleaved AGLTR-pNA relatively efficiently | – | – | – | – | – | – | – | – | – | – | –
